Test results published in patent publication US11053204B2, “Pyrimidinyloxy benzene derivatives as herbicides” (FMC Corporation, priority 2015, dated 2021).

Columns and labels:
Type in all cases: in vivo
[1] = test system: corn (Zea mays); experiment: Test A postemergence, visual injury rating; settings: 0 to 100 scale, 0 is no effect, 100 is complete control, approximately 10 days
Outline: (§1)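 Injury scores run from 0, no effect, to 100, complete control, judged by eye against untreated plants roughly 10 days after treatment. Chemicals carried a surfactant in a non-phytotoxic solvent and went onto loam–sand soil preemergence or onto one- to two-leaf seedlings postemergence.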

[2] = test system: ragweed (common ragweed, Ambrosia elatior); experiment: Test A postemergence, visual injury rating; settings: 0 to 100 scale, 0 is no effect, 100 is complete control, approximately 10 days
Outline: as §1

[3] = test system: blackgrass (Alopecurus myosuroides); experiment: Test A postemergence, visual injury rating; settings: 0 to 100 scale, 0 is no effect, 100 is complete control, approximately 10 days
Outline: as §1

[4] = test system: barnyardgrass (Echinochloa crus-galli); experiment: Test A postemergence, visual injury rating; settings: 0 to 100 scale, 0 is no effect, 100 is complete control, approximately 10 days
Outline: as §1

[5] = test system: Italian ryegrass (Lolium multiflorum); experiment: Test A postemergence, visual injury rating; settings: 0 to 100 scale, 0 is no effect, 100 is complete control, approximately 10 days
Outline: as §1

[6] = test system: pigweed (Amaranthus retroflexus); experiment: Test A postemergence, visual injury rating; settings: 0 to 100 scale, 0 is no effect, 100 is complete control, approximately 10 days
Outline: as §1

[7] = test system: kochia (Kochia scoparia); experiment: Test A postemergence, visual injury rating; settings: 0 to 100 scale, 0 is no effect, 100 is complete control, approximately 10 days
Outline: as §1

[8] = test system: giant foxtail (Setaria faberii); experiment: Test A postemergence, visual injury rating; settings: 0 to 100 scale, 0 is no effect, 100 is complete control, approximately 10 days
Outline: as §1

[9] = test system: wheat (Triticum aestivum); experiment: Test A postemergence, visual injury rating; settings: 0 to 100 scale, 0 is no effect, 100 is complete control, approximately 10 days
Outline: as §1

[10] = test system: galium (catchweed bedstraw, Galium aparine); experiment: Test A postemergence, visual injury rating; settings: 0 to 100 scale, 0 is no effect, 100 is complete control, approximately 10 days
Outline: as §1

[11] = test system: ragweed (common ragweed, Ambrosia elatior); experiment: Test A preemergence, visual injury rating; settings: for Plant response rating, Ragweed: 31 g ai/ha, 0 to 100 scale, 0 no effect, 100 complete control; for Ragweed plant response rating: 125 g ai/ha, 0 to 100 scale (0 no effect, 100 complete control)
Outline: as §1

[12] = test system: barnyardgrass (Echinochloa crus-galli); experiment: Test A preemergence, visual injury rating; settings: for Plant response rating, Barnyardgrass: 31 g ai/ha, 0 to 100 scale, 0 no effect, 100 complete control; for Barnyardgrass plant response rating: 125 g ai/ha, 0 to 100 scale (0 no effect, 100 complete control)
Outline: as §1

[13] = test system: Italian ryegrass (Lolium multiflorum); experiment: Test A preemergence, visual injury rating; settings: for Plant response rating, Ryegrass, Italian: 31 g ai/ha, 0 to 100 scale, 0 no effect, 100 complete control; for Ryegrass, Italian plant response rating: 125 g ai/ha, 0 to 100 scale (0 no effect, 100 complete control)
Outline: as §1

[14] = test system: pigweed (Amaranthus retroflexus); experiment: Test A preemergence, visual injury rating; settings: for Plant response rating, Pigweed: 31 g ai/ha, 0 to 100 scale, 0 no effect, 100 complete control; for Pigweed plant response rating: 125 g ai/ha, 0 to 100 scale (0 no effect, 100 complete control)
Outline: as §1

[15] = test system: kochia (Kochia scoparia); experiment: Test A preemergence, visual injury rating; settings: for Plant response rating, Kochia: 31 g ai/ha, 0 to 100 scale, 0 no effect, 100 complete control; for Kochia plant response rating: 125 g ai/ha, 0 to 100 scale (0 no effect, 100 complete control)
Outline: as §1

[16] = test system: giant foxtail (Setaria faberii); experiment: Test A preemergence, visual injury rating; settings: for Plant response rating, Foxtail, Giant: 31 g ai/ha, 0 to 100 scale, 0 no effect, 100 complete control; for Foxtail, Giant plant response rating: 125 g ai/ha, 0 to 100 scale (0 no effect, 100 complete control)
Outline: as §1

[17] = test system: barnyardgrass (Echinochloa crus-galli); experiment: Test B flooded paddy test, plant response rating; settings: 250 g ai/ha; Flood; scale of 0 to 100 where 0 is no effect and 100 is complete control; 13 to 15 days
Outline: (§2)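 Test compounds are applied straight into paddy water held 3 cm above the soil surface, with that flood maintained for the whole test. After 13 to 15 days in the greenhouse, each species is scored visually relative to controls.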

[18] = test system: sedge, umbrella (small-flower umbrella sedge, Cyperus difformis); experiment: Test B flooded paddy test, plant response rating; settings: 250 g ai/ha; Flood; scale of 0 to 100 where 0 is no effect and 100 is complete control; 13 to 15 days
Outline: as §2

[19] = test system: rice (Oryza sativa); experiment: Test B flooded paddy test, plant response rating; settings: 250 g ai/ha; Flood; scale of 0 to 100 where 0 is no effect and 100 is complete control; 13 to 15 days
Outline: as §2

[20] = test system: ducksalad (Heteranthera limosa); experiment: Test B flooded paddy test, plant response rating; settings: 250 g ai/ha; Flood; scale of 0 to 100 where 0 is no effect and 100 is complete control; 13 to 15 days
Outline: as §2

| Structure (SMILES) | Corn plant response rating ([1]; 31 g ai/ha) | Corn plant response rating ([1]; 125 g ai/ha) | Ragweed plant response rating ([2]; 31 g ai/ha) | Ragweed plant response rating ([2]; 125 g ai/ha) | Blackgrass plant response rating ([3]; 31 g ai/ha) | Blackgrass plant response rating ([3]; 125 g ai/ha) | Barnyardgrass plant response rating ([4]; 31 g ai/ha) | Barnyardgrass plant response rating ([4]; 125 g ai/ha) | Ryegrass, Italian plant response rating ([5]; 31 g ai/ha) | Ryegrass, Italian plant response rating ([5]; 125 g ai/ha) | Pigweed plant response rating ([6]; 31 g ai/ha) | Pigweed plant response rating ([6]; 125 g ai/ha) | Kochia plant response rating ([7]; 31 g ai/ha) | Kochia plant response rating ([7]; 125 g ai/ha) | Foxtail, Giant plant response rating ([8]; 31 g ai/ha) | Foxtail, Giant plant response rating ([8]; 125 g ai/ha) | Wheat plant response rating ([9]; 31 g ai/ha) | Wheat plant response rating ([9]; 125 g ai/ha) | Galium plant response rating ([10]; 31 g ai/ha) | Galium plant response rating ([10]; 125 g ai/ha) | other results |
| --- | --- | --- | --- | --- | --- | --- | --- | --- | --- | --- | --- | --- | --- | --- | --- | --- | --- | --- | --- | --- | --- |
| O=C(NCCC(F)(F)F)c1c(Br)cccc1Oc1ncc(Cl)cn1 [Compound 93] | 0 | 0 | 0 | 0 | 0 | 0 | 0 | 0 | 0 | 0 | 0 | 0 | 0 | 0 | 0 | 0 | 0 | 0 | 0 | 0 | Plant response rating, Ragweed [11]: 0; Ragweed plant response rating [11]: 0; Plant response rating, Barnyardgrass [12]: 0; Barnyardgrass plant response rating [12]: 0; Plant response rating, Ryegrass, Italian [13]: 0; Ryegrass, Italian plant response rating [13]: 0; Plant response rating, Pigweed [14]: 0; Pigweed plant response rating [14]: 0; Plant response rating, Kochia [15]: 0; Kochia plant response rating [15]: 0; Plant response rating, Foxtail, Giant [16]: 0; Foxtail, Giant plant response rating [16]: 0; Plant response rating, Barnyardgrass [17]: 0; Plant response rating, Sedge, Umbrella [18]: 0; Plant response rating, Rice [19]: 0; Plant response rating, Ducksalad [20]: 0 |
| CCCCCc1c(C#N)cccc1Oc1ncc(Cl)cn1 [Compound 87] | 40 | 50 | 0 | 0 | 10 | 70 | 40 | 100 | 0 | 30 | 40 | 60 | 100 | 100 | 40 | 90 | 20 | 30 | 30 | 70 | Plant response rating, Ragweed [11]: 0; Ragweed plant response rating [11]: 0; Plant response rating, Barnyardgrass [12]: 70; Barnyardgrass plant response rating [12]: 100; Plant response rating, Ryegrass, Italian [13]: 0; Ryegrass, Italian plant response rating [13]: 20; Plant response rating, Pigweed [14]: 40; Pigweed plant response rating [14]: 100; Plant response rating, Kochia [15]: 30; Kochia plant response rating [15]: 90; Plant response rating, Foxtail, Giant [16]: 60; Foxtail, Giant plant response rating [16]: 100; Plant response rating, Barnyardgrass [17]: 50; Plant response rating, Sedge, Umbrella [18]: 100; Plant response rating, Rice [19]: 35; Plant response rating, Ducksalad [20]: 100 |
